Data: patent publication EP3248604A1, “AGENTS FOR MODULATION OF WNT-TCF SIGNALLING AND USES THEREOF” (UNIVERSITE DE GENEVE, priority 2016, dated 2017)

Experiments:
Type in all cases: cell-based, human
[1] = test system: WNT-TCF targets; assay: RT-qPCR gene expression in MeWo melanoma cells; conditions: 16h, batch 3, vs DMSO=1
Experimental: (§1) RT-qPCR was performed as in Melotti et al. (2014, supra) using BioRad equipment and reagents. Cells cultured in nitro were treated with the desired concentration of drug in DMEM-F12 and reduced serum (2.5% FBS) for 16h, unless otherwise noted, and collected in Trizol (Sigma) before total RNA extraction and cDNA synthesis. Primers were as in Table 1. HPRT (gene encoding Hypoxanthine phosphoribosyltransferase 1) and βACTIN were used as housekeeping controls for normalization.
Primary colon cells CC14, CC36 and mCC11, colon cancer cell lines DLD1, HT29, Ls174T, melanoma cell line MeWo, glioblastoma cell lines U87 and U251, and the lung cancer cell line H358 were cultured in DMEM-F12 with 10% FBS under standard in nitro conditions.

[2] = test system: Epigenetic regulators; assay: RT-qPCR of epigenetic regulators in HT29 cells; conditions: 0.5 µM
Experimental: as §1
The WNT-TCF-independent repressive activity of CAP2 on epigenetic regulators may be extrapolated to other cancer cells as it was also detected in HT29 and CC14 human colon cancer cells, in MeWo human melanoma cells as well as in U87 and U251 human glioma cells. In all these different human cancer cells, CAP2 (at 0.5 µM) modulated the expression of ZMYND8, SMARCAL1, TBLIXR1, SETD6 and TAF5Ls (Table 15).

[3] = test system: TCF targets; assay: Microarray transcriptome analysis in Ls174T cells; conditions: 16h
Experimental: Cells treated with compounds were collected in Trizol and RNA was harvested using standard protocols. Quality and quantity of RNA was checked using Nano Series (Agilent Technologies). Samples with a RNA Integrity Number (RIN) >9/10 were chosen and cDNA and cRNA samples were prepared using GeneChip IVT Express kit. Genechip hybridization was done using the same kit and applied to PrimeView U219 human array (Affymetrix) in the Genomic Platform at the Faculty of Medicine, University of Geneva.
To test the effects of CAP2 on the transcriptome in a genome-wide manner microarray analyses with Ls174T cells were performed as these have been previously used to determine the genome-wide changes driven by dnTCF activity (van der Flier et al., 2007, Gastroenterology, 132(2): 628-32), the genetic benchmark use here. Ls174T cells were treated with 5 µM CAP2 (batch 3) for 16h, and their transcriptome compared with that of controls treated with DMSO under the same conditions. This dose was chosen since it results in extended WNT-TCF target gene modulation (Table 6).

[4] = test system: BMP/TGFβ; assay: RT-qPCR gene expression in Ls174T cells, BMP/TGFβ genes; conditions: vs DMSO=1
Experimental: as §1
Nine components of the three pathways (WNT-TCF, BMP/TGFβ and chemokine/cytokine), and the top 6 repressed epigenetic regulators (ZMYND8, EED, SMARCAL1, TBLIXR1, SETD6 and TAF5L) (Figure 12) were tested for their modulation by dnTCF and their timed response to CAP2 treatment. […] DnTCF also repressed the expression of BMP4, SMAD6, IL8, CXCL3 and CXCL5, but expression of IL33 was enhanced. […] BMP4 and ID2 were also repressed at 2 and 4h but SMAD6 was repressed only at 4h. CXCL3 was already repressed at 2h, IL8 was little affected and IL33 and CXCL5 were enhanced at 2h. At 4 h only CXCL3 was repressed and the other three cytokine/chemokine genes tested (IL8, IL33 and CXCL5) were neither enhanced nor repressed. […] All values are normalized ratios with DMSO-controls, which were equated to 1 Table 14

[5] = test system: WNT-TCF targets; assay: RT-qPCR gene expression in Ls174T cells; conditions: Ls174T
Experimental: as §1
Compounds have been tested for the transcriptional modulation of a restricted TCF signature in human colon cancer Ls174T cells. These included the direct targets AXIN2 (gene encoding a protein axis inhibition protein 2), LGR5 (gene encoding encodes leucine-rich repeat-containing G-protein coupled receptor 5) and cMYC (a regulator gene encoding a transcription factor), which should be repressed by WNT-TCF response antagonists and p21 (or CDKN1A, gene encoding a cyclin-dependent kinase inhibitor that inhibits the complexes of CDK2 and CDK1), which should be induced.

[6] = Table 9, microarray, Ls174T, 5 µM (batch 3), vs DMSO
[7] = Table 10, Microarray, CAP2 5 µM
[8] = microarray, Ls174T, 5 µM, vs DMSO
[9] = 1.25µM, 16h, batch 3, vs DMSO=1
[10] = 5µM batch 3, 2h post-treatment, vs DMSO=1
[11] = 5µM batch 3, 4h post-treatment, vs DMSO=1
[12] = Table 11, head 'in vitro', concentration not given

**Q.** Which results are given for CC1=C(C)C(=O)O[C@@H]([C@](C)(O)[C@]2(O)CC[C@@]3(O)[C@@H]4CC=C5CC=CC(=O)[C@]5(C)[C@H]4CC[C@]23C)C1 [CAP2]?
**A.** AXIN2 expression ([1]; 1.25µM): 0.4; LEF1 expression ([1]; 1.25µM): 0.1; AXIN2 expression ([1]; 2.5µM): 0.6; LEF1 expression ([1]; 2.5µM): 0.2; AXIN2 expression ([1]; 5µM): 0.3; LEF1 expression ([1]; 5µM): 0.1; AXIN2 expression ([1]; 10µM): 0.6; LEF1 expression ([1]; 10µM): 0.1; EED expression [2]: 0.3; SETD6 expression [2]: 0.2; SMARCAL1 expression [2]: 0.2; TAF5L expression [2]: 0.4; TBL1XR1 expression [2]: 0.02; ZMYND8 expression [2]: 0.1; ASCL2 Fold change [3, 6]: -9; AXIN2 Fold change [3, 6]: -4; CDKN1A Fold change [3, 6]: 9; LGR5 Fold change [3, 6]: -15; cMYC Fold change [3, 6]: -10; ASCL2 Fold change, Ls174T cells [3, 7]: -9.1; AXIN2 Fold change, Ls174T cells [3, 7]: -4.1; LGR5 Fold change, Ls174T cells [3, 7]: -15.1; cMYC Fold change, Ls174T cells [3, 7]: -10.2; share of the 106-gene set of TCF targets repressed by 1.5-fold or more ([3]; microarray, Ls174T, 5 µM): 70%; downregulation of ASCL2 [3, 8]: 9 fold; downregulation of AXIN2 [3, 8]: 4 fold; downregulation of LGR5 [3, 8]: 15 fold; BMP4 expression ([4]; 5µM batch 3, 2h post-treatment): 0.4; ID2 expression ([4]; 5µM batch 3, 2h post-treatment): 0.7; SMAD6 expression ([4]; 5µM batch 3, 2h post-treatment): 1.3; BMP4 expression ([4]; 5µM batch 3, 4h post-treatment): 0.1; ID2 expression ([4]; 5µM batch 3, 4h post-treatment): 0.1; SMAD6 expression ([4]; 5µM batch 3, 4h post-treatment): 0.4; AXIN2 expression [5, 9]: 0.6; LGR5 expression [5, 9]: 0.2; AXIN2 expression ([5]; 2.5µM, 16h, batch 3, vs DMSO=1): 0.4; LGR5 expression ([5]; 2.5µM, 16h, batch 3, vs DMSO=1): 0.1; AXIN2 expression [5, 10]: 0.2; LGR5 expression [5, 10]: 0.7; AXIN2 expression [5, 11]: 0.1; LGR5 expression [5, 11]: 0.1; AXIN2 expression ([5]; 5µM, 16h, batch 3, vs DMSO=1): 0.2; LGR5 expression ([5]; 5µM, 16h, batch 3, vs DMSO=1): 0.03; AXIN2 expression ([5]; 10 µM, 16h): 0.6; CDKN1A expression ([5]; 10 µM, 16h): 3.7; LGR5 expression ([5]; 10 µM, 16h): 0.7; cMYC expression ([5]; 10 µM, 16h): 0.6; AXIN2 expression ([5]; 10µM, 16h, batch 3, vs DMSO=1): 0.1; LGR5 expression ([5]; 10µM, 16h, batch 3, vs DMSO=1): 0.1; AXIN2 expression level as compared to control ([5]; 2D culture, 2.5µm): 0.4; ASCL2 expression ([5]; Table 7, 1.25µM, vs DMSO=1): 1.1; AXIN2 expression ([5]; Table 7, 1.25µM, vs DMSO=1): 0.7; CDKN1A expression ([5]; Table 7, 1.25µM, vs DMSO=1): 3.5; LEF1 expression ([5]; Table 7, 1.25µM, vs DMSO=1): 1.2; LGR5 expression ([5]; Table 7, 1.25µM, vs DMSO=1): 0.3; cMYC expression ([5]; Table 7, 1.25µM, vs DMSO=1): 0.04; ASCL2 expression ([5]; Table 7, 2.5µM, vs DMSO=1): 0.4; AXIN2 expression ([5]; Table 7, 2.5µM, vs DMSO=1): 0.4; CDKN1A expression ([5]; Table 7, 2.5µM, vs DMSO=1): 5.4; LEF1 expression ([5]; Table 7, 2.5µM, vs DMSO=1): 0.7; LGR5 expression ([5]; Table 7, 2.5µM, vs DMSO=1): 0.2; cMYC expression ([5]; Table 7, 2.5µM, vs DMSO=1): 0.1; ASCL2 expression ([5]; Table 7, 5µM, vs DMSO=1): 0.1; AXIN2 expression ([5]; Table 7, 5µM, vs DMSO=1): 0.3; CDKN1A expression ([5]; Table 7, 5µM, vs DMSO=1): 11.4; LEF1 expression ([5]; Table 7, 5µM, vs DMSO=1): 0.5; LGR5 expression ([5]; Table 7, 5µM, vs DMSO=1): 0.1; cMYC expression ([5]; Table 7, 5µM, vs DMSO=1): 0.1; ASCL2 expression ([5]; Table 7, 10µM, vs DMSO=1): 0.1; AXIN2 expression ([5]; Table 7, 10µM, vs DMSO=1): 0.1; CDKN1A expression ([5]; Table 7, 10µM, vs DMSO=1): 7.6; LEF1 expression ([5]; Table 7, 10µM, vs DMSO=1): 0.3; LGR5 expression ([5]; Table 7, 10µM, vs DMSO=1): 0.1; cMYC expression ([5]; Table 7, 10µM, vs DMSO=1): 0.01; ASCL2 expression [5, 12]: 0.1; AXIN2 expression [5, 12]: 0.3; LGR5 expression [5, 12]: 0.1
